Reference: patent US11370794B2, “Toll-like receptor antagonist compounds and methods of use” (Dynavax Technologies Corporation, priority 2016, dated 2022)
Where two headings read alike, the source gives them in different places.

Experiments:
human TLR9 = target: T1, human TLR9 (Homo sapiens, UniProt Q9NR96); assay: Inhibition of human TLR9 in human B cells (IL-6 ELISA); format: cell-based; settings: for IC50: human B cells, agonist 1018 ISS 1 μM; for inhibits TLR9-dependent responses (in words): summary statement of the description
T1 construct: endogenous in cells; host or cells: primary human B cells (CD19 microbeads) from buffy coats of healthy donors
T1 sequence (Q9NR96 26-1032): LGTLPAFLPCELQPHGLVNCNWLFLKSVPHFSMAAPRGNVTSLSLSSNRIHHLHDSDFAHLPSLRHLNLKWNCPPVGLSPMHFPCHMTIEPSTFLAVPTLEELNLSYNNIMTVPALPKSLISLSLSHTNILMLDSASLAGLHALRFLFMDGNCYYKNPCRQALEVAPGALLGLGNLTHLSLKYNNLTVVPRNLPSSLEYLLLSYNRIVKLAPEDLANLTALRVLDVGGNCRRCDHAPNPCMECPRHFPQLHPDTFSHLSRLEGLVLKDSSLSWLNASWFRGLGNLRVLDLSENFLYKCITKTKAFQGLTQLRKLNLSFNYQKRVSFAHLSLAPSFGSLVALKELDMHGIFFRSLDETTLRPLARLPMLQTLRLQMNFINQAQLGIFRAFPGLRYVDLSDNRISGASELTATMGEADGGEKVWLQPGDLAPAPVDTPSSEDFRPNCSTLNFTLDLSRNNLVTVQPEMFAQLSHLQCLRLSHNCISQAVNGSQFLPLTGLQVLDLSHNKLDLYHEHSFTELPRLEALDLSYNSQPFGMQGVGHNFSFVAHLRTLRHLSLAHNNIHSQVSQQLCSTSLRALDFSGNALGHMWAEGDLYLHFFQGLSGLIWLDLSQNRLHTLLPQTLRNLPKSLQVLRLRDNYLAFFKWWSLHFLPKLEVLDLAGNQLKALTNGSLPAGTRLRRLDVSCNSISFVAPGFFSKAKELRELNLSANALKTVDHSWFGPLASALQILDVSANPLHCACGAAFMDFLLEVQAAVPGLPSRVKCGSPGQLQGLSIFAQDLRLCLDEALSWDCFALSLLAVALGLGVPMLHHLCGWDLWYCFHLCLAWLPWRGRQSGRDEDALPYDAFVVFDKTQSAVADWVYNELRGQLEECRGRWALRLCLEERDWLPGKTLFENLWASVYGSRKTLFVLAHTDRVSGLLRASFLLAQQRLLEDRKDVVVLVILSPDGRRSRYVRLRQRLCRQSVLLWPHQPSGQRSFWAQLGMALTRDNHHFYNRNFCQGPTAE
Experimental: Example B3—Inhibition of Human TLR9 in Human B Cells
When placed in cell culture, engagement of TLR9 with an agonist leads to expression and release of cytokines into the media.
Buffy coats from anonymized, healthy human donors. CD19 microbeads (Miltenyi Cat. No. 130-050-301). TLR9 agonist, 1018 ISS, CpG-containing DNA oligonucleotide. Human interleukin (IL)-6 ELISA kit (Mabtech Cat. No. 3460-1H-20).
Following isolation of […] from buffy coats, human B cells were plated into 96 well plates at approximately 300,000 cells per well. Test compounds were serially diluted and added to the plates. Test compounds were typically assayed using a concentration range from about 0.01 μM to about 10 μM. Certain test compounds were further assayed in an expanded dilution series using a compound concentration range from about 0.001 μM to about 30 μM. Immediately after adding test compounds, the TLR9 agonist (1018 ISS, CpG-containing DNA oligonucleotide) was added to a final concentration of 1 μM. Cells were incubated for 48 hours at 37° C. A portion of the media supernatant was analyzed for the presence of IL-6 using ELISA kits. The amount of IL-6 produced is a reflection of the amount of TLR9-dependent receptor activity. The IC50 values (the concentration at which 50% of the TLR9-dependent receptor activity is reduced) were calculated based upon the TLR9-dependent receptor activity over a range of different test compound concentrations.

human TLR8 = target: T2, human TLR8 (Homo sapiens, UniProt Q9NR97); assay: Inhibition of human TLR8 in human monocytes (TNF-alpha / IL-1 beta ELISA); format: cell-based; settings: human monocytes, agonist ORN8L 100 μg/mL, 24 hours
T2 construct: endogenous in cells; host or cells: primary human monocytes (CD14 microbeads) from buffy coats of healthy donors
T2 sequence (Q9NR97 27-1041): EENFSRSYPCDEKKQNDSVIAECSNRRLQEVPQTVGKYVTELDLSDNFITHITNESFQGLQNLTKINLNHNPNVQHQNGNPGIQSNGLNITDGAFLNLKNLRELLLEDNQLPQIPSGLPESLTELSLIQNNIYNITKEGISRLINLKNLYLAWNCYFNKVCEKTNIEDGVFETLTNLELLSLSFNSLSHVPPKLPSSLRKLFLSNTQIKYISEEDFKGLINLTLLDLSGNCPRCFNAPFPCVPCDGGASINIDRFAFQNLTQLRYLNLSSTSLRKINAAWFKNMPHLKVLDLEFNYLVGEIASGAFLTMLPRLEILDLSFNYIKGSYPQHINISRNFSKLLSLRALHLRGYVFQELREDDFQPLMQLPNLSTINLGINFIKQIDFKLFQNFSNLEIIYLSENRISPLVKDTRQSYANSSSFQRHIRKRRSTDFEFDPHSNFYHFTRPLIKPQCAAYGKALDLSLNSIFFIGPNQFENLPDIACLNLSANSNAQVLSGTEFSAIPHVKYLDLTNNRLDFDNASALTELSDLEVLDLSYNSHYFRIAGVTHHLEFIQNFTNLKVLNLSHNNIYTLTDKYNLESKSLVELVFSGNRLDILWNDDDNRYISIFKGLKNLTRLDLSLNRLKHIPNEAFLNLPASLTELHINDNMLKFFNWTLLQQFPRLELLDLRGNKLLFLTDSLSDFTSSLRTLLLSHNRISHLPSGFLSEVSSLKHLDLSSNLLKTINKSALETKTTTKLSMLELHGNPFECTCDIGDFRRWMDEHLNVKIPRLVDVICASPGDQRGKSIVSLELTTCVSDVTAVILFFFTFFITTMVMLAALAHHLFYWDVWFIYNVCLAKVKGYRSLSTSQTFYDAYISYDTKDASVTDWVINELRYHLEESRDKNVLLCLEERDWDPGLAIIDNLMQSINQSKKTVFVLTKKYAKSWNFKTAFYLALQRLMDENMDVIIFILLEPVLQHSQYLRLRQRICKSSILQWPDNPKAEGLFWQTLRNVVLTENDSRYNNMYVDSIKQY
Excerpt: Example B2—Inhibition of Human TLR8 in Human Monocytes
When placed in cell culture, engagement of TLR8 with an agonist leads to expression and release of cytokines into the media.
Buffy coats from anonymized, healthy human donors. CD14 microbeads (Milteny Cat. No. 130-050-201). TLR8 agonist, (5′-M2UGCUGCUUGUG-/glycerol/-GUGUUCGUCGUM2-5′ with M2=C6-linker, ORN8L, RNA oligonucleotide (Chem Genes Corp.). Human TNF-alpha ELISA kit (Mabtech Cat. No. 3510-1H-20). Human interleukin (IL)-1 beta ELISA kit (Mabtech Cat. No. 3415-1H-20).
Following isolation of monocytes from buffy coats, human monocytes were plated into 96 well plates at approximately 200,000 cells per well. Test compounds were serially diluted and added to the plates. Immediately after adding test compounds, the TLR8 agonist (ORN8L, RNA oligonucleotide) was added to a final concentration of 100 μg/mL. Cells were incubated for 24 hours at 37° C. A portion of the media supernatant was analyzed for the presence of TNF-alpha and/or IL-1 beta using ELISA kits. The amount of TNF-alpha or IL-1 beta produced is a reflection of the amount of TLR8-dependent receptor activity. The IC50 values (the concentration at which 50% of the TLR8-dependent receptor activity is reduced) were calculated based upon the TLR8-dependent receptor activity over a range of different test compound concentrations.

[1] = IL-6 readout, 48 hours, range about 0.01 to 10 μM, read-out: Human TLR9 IC50
[2] = TNF-alpha readout, read-out: Human TLR8 IC50 TNF-a
[3] = IL-1 beta readout, read-out: Human TLR8 IC50 IL-1b
[4] = IL-6, 48 hours, expanded dilution series about 0.001 to 30 μM, read-out: Human TLR9 IC50, expanded dilution series

IC50 (human TLR9; [1]) [µM]	IC50 (human TLR8; [2]) [µM]	IC50 (human TLR8; [3]) [µM]	inhibits TLR9-dependent responses (in words) (human TLR9)	IC50 (human TLR9; [4]) [µM]	Structure (SMILES)
3.77	≥ 20	–	–	–	CNC(=O)C1CCN(c2nnc(C)c3c(C)n(-c4ccc(C)cc4)nc23)CC1 [2-2]
> 10	> 10	> 10	–	–	Cc1ccc(-n2nc3c(N4CCC(C(=O)N5CCOCC5)CC4)nnc(C)c3c2C)cc1 [2-3]
> 10	> 10	> 10	–	–	Cc1ccc(-n2nc3c(N4CCC(C(=O)NCCCN5CCc6ccccc65)CC4)nnc(C)c3c2C)cc1 [2-4]
> 10	> 10	> 10	–	–	Cc1ccc(-n2nc3c(N4CCC(C(=O)NCCCN5CCCc6ccccc65)CC4)nnc(C)c3c2C)cc1 [2-5]
> 10	> 10	> 10	–	–	Cc1ccc(-n2nc3c(N4CCC(C(=O)NCCCc5ccccc5)CC4)nnc(C)c3c2C)cc1 [2-6]
0.427	> 10	> 10	–	–	Cc1ccc(-n2nc3c(N4CCC(C(=O)NCCCCCc5ccccc5)CC4)nnc(C)c3c2C)cc1 [2-12]
0.368	> 10	> 10	–	–	CCN(CC)CCCNC(=O)C1CCN(c2nnc(C)c3c(C)n(-c4ccccc4)nc23)CC1 [7x, N-(3-(diethylamino)propyl)-1-(3,4-dimethyl-2-phenyl-2H-pyrazolo[3,4-d]pyridazin-7-yl)piperidine-4-carboxamide]
0.04	> 10	> 10	inhibit	–	CCN(CC)CCCNC(=O)C1CCN(c2nnc(C)c3c(C)n(-c4ccc(OC)cc4)nc23)CC1 [9x, N-(3-(diethylamino)propyl)-1-(2-(4-methoxyphenyl)-3,4-dimethyl-2H-pyrazolo[3,4-d]pyridazin-7-yl)piperidine-4-carboxamide]
0.408	4.6	–	–	–	Cc1ccc(-n2nc3c(N4CCC(C(=O)NCCCN5CCCC5)CC4)nnc(C)c3c2C)cc1 [15x, 1-(3,4-dimethyl-2-(p-tolyl)-2H-pyrazolo[3,4-d]pyridazin-7-yl)-N-(3-(pyrrolidin-1-yl)propyl)piperidine-4-carboxamide]
0.017	≥ 20	–	inhibit	–	Cc1ccc(-n2nc3c(N4CCC(C(=O)NCCN5CCOCC5)CC4)nnc(C)c3c2C)cc1 [17x, 1-(3,4-dimethyl-2-(p-tolyl)-2H-pyrazolo[3,4-d]pyridazin-7-yl)-N-(2-morpholinoethyl)piperidine-4-carboxamide]
0.003	4.86	5.04	–	–	CCN(CC)CCNC(=O)C1CCN(c2nnc(C)c3c(C)n(-c4ccc(C)cc4)nc23)CC1 [20x, N-(2-(diethylamino)ethyl)-1-(3,4-dimethyl-2-(p-tolyl)-2H-pyrazolo[3,4-d]pyridazin-7-yl)piperidine-4-carboxamide]
0.032	> 10	> 10	inhibit	–	Cc1nnc(N2CCC(C(=O)NCCN3CCCCC3C)CC2)c2nn(-c3ccccc3)c(C)c12 (stereo not drawn) [24x, 1-(3,4-dimethyl-2-phenyl-2H-pyrazolo[3,4-d]pyridazin-7-yl)-N-(2-(2-methylpiperidin-1-yl)ethyl)piperidine-4-carboxamide]
–	–	–	inhibit	–	Cc1ccc(-n2nc3c(N4CCC(C(=O)N5CC[C@H](CN(C)C)C5)CC4)nnc(C)c3c2C)cc1 [Compound 45a, (R)-(1-(3,4-dimethyl-2-(p-tolyl)-2H-pyrazolo[3,4-d]pyridazin-7-yl)piperidin-4-yl)(3-((dimethylamino)methyl)pyrrolidin-1-yl)methanone]
–	–	–	inhibit	–	Cc1ccc(-n2nc3c(N4CCC(C(=O)N5CC[C@@H](CN(C)C)C5)CC4)nnc(C)c3c2C)cc1 [Compound 45b, (S)-(1-(3,4-dimethyl-2-(p-tolyl)-2H-pyrazolo[3,4-d]pyridazin-7-yl)piperidin-4-yl)(3-((dimethylamino)methyl)pyrrolidin-1-yl)methanone]
0.007	–	–	–	0.009	Cc1ccc(-n2cc3cncc(N4CCC(C(=O)NCCCN(C)C)CC4)c3n2)cc1 [Compound No. 55, N-(3-(dimethylamino)propyl)-1-(2-(p-tolyl)-2H-pyrazolo[4,3-c]pyridin-7-yl)piperidine-4-carboxamide]
0.018	–	–	–	0.024	Cc1ccc(-n2nc3c(N4CCC(C)(C(=O)NCCCN(C)C)CC4)nnc(C)c3c2C)cc1 [compound 20, 1-(3,4-dimethyl-2-(p-tolyl)-2H-pyrazolo[3,4-d]pyridazin-7-yl)-N-(3-(dimethylamino)propyl)-4-methylpiperidine-4-carboxamide]
